Test results from ChEMBL document CHEMBL1201862, “PubChem BioAssay data set” (2004).
Activity calls are given as the source filed them.

Legend:
[1] = target: T1, Cytochrome P450 1A2 (Homo sapiens, UniProt P05177);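 also: PubChem cytochrome P450 panel assay, CYP1A2 panel member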
T1 sequence (P05177 whole entry): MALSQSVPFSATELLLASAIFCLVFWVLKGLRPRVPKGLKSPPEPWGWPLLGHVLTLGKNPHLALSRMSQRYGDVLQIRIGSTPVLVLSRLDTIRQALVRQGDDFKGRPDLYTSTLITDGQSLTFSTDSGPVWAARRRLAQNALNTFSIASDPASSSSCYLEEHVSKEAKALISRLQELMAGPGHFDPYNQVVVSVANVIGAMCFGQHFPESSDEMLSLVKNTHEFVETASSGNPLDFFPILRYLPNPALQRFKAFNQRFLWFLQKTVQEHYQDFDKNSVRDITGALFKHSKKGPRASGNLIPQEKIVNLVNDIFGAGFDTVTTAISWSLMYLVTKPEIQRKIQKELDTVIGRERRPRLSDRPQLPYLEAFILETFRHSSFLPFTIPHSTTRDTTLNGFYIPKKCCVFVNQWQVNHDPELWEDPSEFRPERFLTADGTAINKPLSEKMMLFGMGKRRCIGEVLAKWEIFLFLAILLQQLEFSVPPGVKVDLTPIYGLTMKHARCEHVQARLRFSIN

[2] = target: Cytochrome P450 2D6 (Homo sapiens, UniProt P10635)
Sequence of Cytochrome P450 2D6 (P10635 whole entry): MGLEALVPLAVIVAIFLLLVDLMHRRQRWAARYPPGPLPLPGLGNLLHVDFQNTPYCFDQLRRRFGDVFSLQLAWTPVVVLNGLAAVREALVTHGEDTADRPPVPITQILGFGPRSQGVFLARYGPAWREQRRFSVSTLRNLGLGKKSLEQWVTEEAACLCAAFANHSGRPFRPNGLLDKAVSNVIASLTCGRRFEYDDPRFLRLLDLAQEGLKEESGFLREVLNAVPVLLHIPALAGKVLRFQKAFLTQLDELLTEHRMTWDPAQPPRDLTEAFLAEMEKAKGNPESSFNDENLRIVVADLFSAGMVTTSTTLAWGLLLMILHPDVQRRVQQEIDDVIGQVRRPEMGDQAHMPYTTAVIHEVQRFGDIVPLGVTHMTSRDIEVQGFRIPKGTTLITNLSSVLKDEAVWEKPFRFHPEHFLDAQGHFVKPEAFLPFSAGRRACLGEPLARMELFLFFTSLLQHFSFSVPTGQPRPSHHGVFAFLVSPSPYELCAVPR

[3] = cells; format: functional
[4] = target: FAD-linked sulfhydryl oxidase ALR (Homo sapiens, UniProt P55789); assay: ALR-catalysed DTT oxidation blockers – biochemical, H2O2 detection, luminescence, cherry-pick, dose response (AID 493248)
Sequence of FAD-linked sulfhydryl oxidase ALR (P55789 whole entry): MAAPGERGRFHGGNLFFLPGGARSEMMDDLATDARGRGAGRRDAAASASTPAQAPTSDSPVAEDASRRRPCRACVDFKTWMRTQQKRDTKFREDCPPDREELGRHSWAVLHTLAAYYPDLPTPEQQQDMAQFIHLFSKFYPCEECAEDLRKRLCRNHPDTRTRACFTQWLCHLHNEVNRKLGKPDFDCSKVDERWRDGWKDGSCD

[5] = target: T2, Heat shock factor protein 1 (Mus musculus, UniProt P38532); assay: enhancement of HSF1-driven luciferase signal – cell-based, NIH3T3, luminescence, dose retest, confirmation (AID 435004); format: functional;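 also: stress induced by proteasome inhibitor MG132 added 30 min after compound; luciferase reporter driven by HSF1 response element in NIH3T3 cells; actives raise luminescence as potentiators of the MG132 stress response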
T2 sequence (P38532 whole entry): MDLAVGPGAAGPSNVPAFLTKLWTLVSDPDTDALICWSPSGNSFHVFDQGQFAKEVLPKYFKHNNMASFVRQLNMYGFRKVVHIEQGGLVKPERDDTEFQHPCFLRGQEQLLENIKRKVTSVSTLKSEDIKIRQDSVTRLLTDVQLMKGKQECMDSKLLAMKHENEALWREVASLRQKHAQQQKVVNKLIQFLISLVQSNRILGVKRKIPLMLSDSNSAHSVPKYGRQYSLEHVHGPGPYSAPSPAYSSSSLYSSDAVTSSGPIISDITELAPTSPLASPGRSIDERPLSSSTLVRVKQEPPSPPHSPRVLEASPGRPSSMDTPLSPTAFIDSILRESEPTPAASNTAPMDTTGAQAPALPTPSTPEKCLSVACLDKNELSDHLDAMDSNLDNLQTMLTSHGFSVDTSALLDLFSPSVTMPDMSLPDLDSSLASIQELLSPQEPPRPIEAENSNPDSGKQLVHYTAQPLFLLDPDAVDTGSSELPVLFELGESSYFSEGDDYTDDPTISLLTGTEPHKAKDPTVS

[6] = target: Cytochrome P450 2C19 (Homo sapiens, UniProt P33261); assay: Cytochrome panel assay with activity outcomes. Panel member name: p450-cyp2c19 Compounds with AC50 equal or less than 10 uM are considered active; format: functional; settings: read-out: AC50
Sequence of Cytochrome P450 2C19 (P33261 whole entry): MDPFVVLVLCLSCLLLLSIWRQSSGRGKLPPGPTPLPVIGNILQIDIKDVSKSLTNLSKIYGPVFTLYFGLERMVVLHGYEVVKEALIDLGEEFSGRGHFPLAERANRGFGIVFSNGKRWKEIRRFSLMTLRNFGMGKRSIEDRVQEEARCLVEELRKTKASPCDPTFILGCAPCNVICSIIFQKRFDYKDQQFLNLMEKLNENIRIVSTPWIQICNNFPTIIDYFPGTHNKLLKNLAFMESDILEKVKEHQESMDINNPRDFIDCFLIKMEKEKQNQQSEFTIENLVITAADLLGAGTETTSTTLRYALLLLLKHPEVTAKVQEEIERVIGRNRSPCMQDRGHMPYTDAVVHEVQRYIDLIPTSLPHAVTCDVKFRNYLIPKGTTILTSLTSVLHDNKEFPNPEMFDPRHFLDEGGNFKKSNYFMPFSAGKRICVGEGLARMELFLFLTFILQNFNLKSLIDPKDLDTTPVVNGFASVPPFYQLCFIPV

[7] = NIH3T3 cell viability loss – ATP luminescence, mouse fibroblasts, counter-screen, dose response (AID 2010); format: functional, cell-based;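 also: cells exposed to compound for about 90 hours before reading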
[8] = Luminescence Cell-Based Dose Retest to Confirm Inhibitors of Cancer Stem Cells. [Related pubchem assays (depositor defined):AID2717, AID2721]; format: functional; settings: Homo sapiens
[9] = Trypanosoma cruzi growth suppression in host cells – NIH3T3 host cells, beta-gal luminescence, confirmation (AID 2044); format: functional, cell-based;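 also: intracellular parasites grown in NIH/3T3 mouse fibroblasts as host cells; luminescent beta-galactosidase reporter signal from transgenic T. cruzi replicating inside host cells; inhibitors lower the luminescence signal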

C=CCn1c(Cc2c[nH]c3ccccc23)nnc1SCC(=O)NCc1ccccc1
AC50 [1]: 12.6 µM (inconclusive)

Cc1ccccc1CSc1nnc(-c2cccs2)n1Cc1ccco1
AC50 [2]: 1.12 µM (inconclusive)

CCOCCOC(=O)COc1ccc2c(-c3ccccc3)cc(=O)oc2c1
IC50 [3]: 1.77 µM (active)

Nc1n[nH]c(N2CCN(c3cccc(Cl)c3)CC2)n1
AC50 [4]: 1.25 µM (active)

Nc1nnc(SCC(=O)Nc2cccc3ccccc23)s1
EC50 [5]: > 260 µM (inactive)

Cc1ccc(NNC(=O)c2ccno2)c(C)c1
EC50 [5]: > 260 µM (inactive)
AC50 [4]: 3.48 µM (active)

O=C(c1csnn1)N1CCC2(CC1)CN(c1ccccc1)C2
AC50 [6]: 39.8 µM (inconclusive)
AC50 [2]: 15.8 µM (inconclusive)

C(=C/c1ccccc1)/CN1CCN(CCOC(c2ccccc2)c2ccccc2)CC1
AC50 [1]: 20 µM (inconclusive)

O=C(OCc1ccc([N+](=O)[O-])cc1)c1cc2ccccc2oc1=O
IC50 [3]: 23.2 µM (active)

CC1CCCCN1C(=O)COc1ccccc1F (stereo not drawn)
EC50 [5]: > 260 µM (inactive)

N#Cc1ccsc1NC(=O)CN1CCN(c2ccccc2O)CC1
AC50 [4]: 1.46 µM (active)

CCOC(=O)Nc1ccc(C(=O)NCC2CCCO2)cc1 (stereo not drawn)
AC50 [1]: 39.8 µM (inconclusive)

CCOC(=O)COc1ccc2c3c(c(=O)oc2c1C)CCC3
IC50 [3]: > 50 µM (active)

NC1=NC(=O)/C(=C/c2cn(Cc3ccccc3)c3ccccc23)S1
EC50 [5]: > 260 µM (inactive)

Cc1ccc(Sc2ccc(S(=O)(=O)Nc3ccc(C(=O)O)cc3)cc2)cc1C
AC50 [4]: 20.7 µM (active)

Cc1ccccc1-c1nc(N2CCNCC2)c2ccccc2n1
AC50 [2]: 20 µM (inconclusive)

CCOC(=O)C1CCN(c2ncnc3c2c(-c2ccccc2)cn3-c2ccccc2)CC1
EC50 [7]: > 60 µM (not active)
AC50 [8]: 3.11 µM (active)
EC50 [9]: 2.23 µM (active)

Cc1c(C)c(C)c(C(=O)c2ccc(NC(=O)c3ccccc3C(=O)O)cc2)c(C)c1C
AC50 [4]: 5.32 µM (active)

N#C/C(=C\c1ccc(Cl)cc1)c1nc2ccccc2o1
EC50 [5]: > 260 µM (inactive)

CCOC(=O)Cn1cc(C#N)c2cccc(CC)c21
IC50 [3]: 4.78 µM (active)

COc1ccc(CCN2/C(=N/C(=O)CCC(=O)O)SC3CS(=O)(=O)CC32)cc1 (stereo not drawn)
AC50 [2]: 39.8 µM (inconclusive)

Fc1cccc(-n2c(-c3cccs3)nc3nc4ccccc4nc32)c1
AC50 [8]: 1.69 µM (active)

Cc1cc(C)nc(NNC(=O)c2ccccc2O)n1
AC50 [4]: 5.66 µM (active)

CC1CCCCN1c1ccc(N)cc1C(N)=O (stereo not drawn)
AC50 [4]: 11.1 µM (active)

COc1ccc(OCc2nnnn2-c2ccccc2)cc1
EC50 [5]: > 260 µM (inactive)

CN=C(S)N(Cc1ccc(Cl)cc1)Cc1cccs1
EC50 [5]: > 260 µM (inactive)

N#Cc1ccc(CN2CC[C@@]3(CCCN(C(=O)Oc4ccccc4)C3)C2)cc1
AC50 [1]: 12.6 µM (inconclusive)

C/C(=N\NC(=O)c1cccc(N2CCCC2=O)c1)c1ccc(N)cc1
AC50 [4]: 1.61 µM (active)

C=CC[C@@H]1C=C[C@H](O/N=C(\C)CCN2CCCc3nc(C)c(C)cc32)[C@H](CO)O1
AC50 [2]: 3.16 µM (inconclusive)
